Laboratory results reported in US12239652B2, “Composition for preventing or treating muscular diseases, or for improving muscular functions, containing ganglioside” (INDUSTRY-ACADEMIC COOPERATION FOUNDATION, YONSEI UNIVERSITY, priority 2018, dated 2025).

Experiments:
atrogin-1 = test: RT-PCR of muscle degrading protein mRNA in TNF-α-treated L6 myotubes: atrogin-1; type: cell-based; conditions: 50 ng/mL TNF-α
Method: (§1) L6 myoblasts (ATCC) were seeded with DMEM (Hyclone) supplemented with 10% FBS (Hyclone) in a 6-well plate at a density of 1×10^5 cells/well, followed by culture. When the cultured cells reached a confluency of ˜80-85% per well, the media in the wells were replaced with DMEM (Hyclone) supplemented with 2% HS (Hyclone), followed by culture for additional 6 days to induce differentiation into myotubes. During culture for 6 days, the culture media were changed once every other day a total of 3 times. The differentiation-induced cells were harvested and the cell media were replaced with DMEM supplemented with 50 ng/mL TNF-α (PeproTech) in which ganglioside GM3 (Cayman) was dissolved at a concentration of 1 μM or 5 μM. A group treated with 0.01% DMSO instead of the sample was used as a control. Total RNA was isolated from cells using TRIzol reagent (Takara, Kyoto, Japan). The isolated total RNA was quantified using NanoDrop 1000 (Thermo Fisher Scientific Inc., Waltham, MA, USA). 16 μL of the RNA was synthesized into cDNA using Reverse Transcriptase Premix (ELPIS-Biotech) and a PCR system (Gene Amp PCR System 2700; Applied Biosystems, Foster City, CA, USA) at 42° C. for 55 min and 70° C. for 15 min. 3 μL of the synthesized cDNA, the specific primers shown in Table 1 (Bioneer, Daej eon, Korea), and PCR premix (ELPIS-Biotech) were mixed and PCR was repeated 30 times at 95° C. for 30 sec, 60° C. for 1 min, and 72° C. for 1 min. After PCR amplification, cDNA was separated by electrophoresis on a 1.5% agarose gel and the cDNA bands were visualized using a G;BOX EF imaging system (Syngene).
(§2) The procedure of Example 8 was repeated except that cells were treated with ganglioside GM1 (Cayman) at a concentration of 15 μM or 25 μM to investigate the mRNA transcription and expression levels of atrogin-1 and MuRF1 as muscle degrading proteins.
(§3) The procedure of Example 8 was repeated except that cells were treated with ganglioside GD1a (Cayman) at a concentration of 1 μM or 3 μM to investigate the mRNA transcription and expression levels of atrogin-1 and MuRF1 as muscle protein degradation-related enzymes.
(§4) The procedure of Example 8 was repeated except that cells were treated with each of gangliosides GT1b and GQ1b (Cayman) at a concentration of 1 μM to investigate the mRNA transcription and expression levels of atrogin-1 and MuRF1 as muscle protein degradation-related enzymes.

mTOR = mTOR Sandwich ELISA in L6 myotubes (activity for myogenic induction); type: cell-based; conditions: 12-h culture, *P<0.05
Method: The mTOR protein is known to induce the activation of proteins involved in muscle protein synthesis and an increase in muscle mass in the PI3K/Akt signaling pathway in muscle cells when phosphorylated and activated. Thus, the activity of mTOR was confirmed using an mTOR Sandwich ELISA kit (Cell Signaling Technology, Beverly, MA, USA) to determine the activity of ganglioside GM3 for myogenic induction.
L6 myoblasts (ATCC; Manassas, VA, USA) were seeded with Dulbecco's modified Eagle's media (DMEM; Hyclone) supplemented with 10% fetal bovine serum (FBS; Hyclone, Logan, UT, USA) in a 6-well plate at a density of 1×10^5 cells/well, followed by culture for 24 h. The media in the wells were replaced with DMEM (Hyclone) supplemented with 2% horse serum (HS; Hyclone), followed by culture for additional 6 days to differentiate the L6 cells into myotubes. Then, cells were treated with ganglioside GM3 (Cayman, Ann Arbor, MI, USA) at a concentration of 1 μM or 5 μM. After 12-h culture, cells were lysed by treatment with a cell lysis buffer. Proteins in the cell lysate were quantified by the Bradford method (Bio-Rad Laboratories Inc., Hercules, CA, USA) and the concentration of the cell lysate was then adjusted to 1 mg/mL. The cell lysate was plated in microwells bound with anti-mTOR antibody (50 μL/well) and cultured at 37° C. for 2 h. Cells were washed a total of 4 times with a washing buffer, treated with a detection antibody, and cultured at 37° C. for 1 h, rewashed a total of 4 times with a washing buffer, added with a horseradish peroxidase (HRP)-conjugated secondary antibody, and cultured at 37° C. for 30 min. Finally, after washing a total of 4 times with a washing buffer, TMB substrate was added to each well. After culture at 37° C. for 10 min, a stop solution was added to stop the TMB reaction. 2 min later, absorbance was measured at a wavelength of 450 nm to determine the level of mTOR in the myotubes treated with ganglioside GM3.
The procedure of Example 1 was repeated except that cells were treated with ganglioside GM1 (Cayman) at a concentration of 15 μM or 25 μM to examine the activity of the ganglioside for myogenic induction.
The procedure of Example 1 was repeated except that cells were treated with ganglioside GD1a (Cayman) at a concentration of 1 μM or 3 μM to examine the activity of the ganglioside for myogenic induction.
The procedure of Example 1 was repeated except that cells were treated with each of gangliosides GT1b and GQ1b (Cayman) at a concentration of 1 μM to examine the activity of the ganglioside for myogenic induction.

MuRF1 = test: RT-PCR of muscle degrading protein mRNA in TNF-α-treated L6 myotubes: MuRF1; type: cell-based; conditions: 50 ng/mL TNF-α
Method: as §1, §2, §3, §4

Wistar rats = test: Muscle mass (soleus weight) in TNF-α-induced muscular atrophy animal model; type: in vivo; conditions: 50 mg/kg body weight once a day for 8 weeks; for Average soleus weight: right soleus, control 416.0 ± 19.57
Method: Wistar rats, aged five weeks, were acclimatized for one week and supplied with 100 ng/g of TNF-α for 2 weeks to induce muscular atrophy. The animals were randomly divided into a total of 5 groups, 8 animals per group, depending on their weight. Each of gangliosides GM3, GM1, GD1a, GT1b, and GQ1b (each 50 mg/kg body weight) as experimental groups was suspended in 0.25% carboxymethylcellulose. The suspension was administered at a given time once a day for 8 weeks. A group administered the same amounts of 0.25% carboxymethyl cellulose and TNF-α ingested by each experimental group was used as a control.
After administration of the sample for 8 weeks, the right soleus was dissected and its weight was measured with a microbalance (Mettler PE160, USA).

p-mTOR = test: Western blot of mRNA translation biomarkers in TNF-α-treated L6 myotubes: p-mTOR; type: cell-based; conditions: 50 ng/mL TNF-α
Method: (§5) L6 myoblasts (ATCC) were seeded with DMEM (Hyclone) supplemented with 10% FBS (Hyclone) in a 6-well plate at a density of 1×10^5 cells/well, followed by culture. When the cultured cells reached a confluency of ˜80-85% per well, the media in the wells were replaced with DMEM (Hyclone) supplemented with 2% HS (Hyclone), followed by culture for additional 6 days to induce differentiation into myotubes. During culture for 6 days, the culture media were changed once every other day a total of 3 times. […] A group treated with 0.01% DMSO instead of the sample was used as a control. Cells were lysed with NP-40 buffer (ELPIS-Biotech, Daej eon, Korea) with a protease inhibitor cocktail (Sigma-Aldrich, St. Louis, MO, USA) and centrifuged at 13,000 rpm for 10 min. The cell lysate was obtained from the supernatant. The concentration of proteins in the supernatant was determined by the Bradford method (Bio-Rad Laboratories Inc.). Proteins at a certain concentration were heated for 5 min and separated by SDS-PAGE electrophoresis. The separated proteins were transferred to nitrocellulose membranes. Then, p-mTOR, mTOR, p-p70S6K, p70S6K, p-4EBP1, 4EBP1, and alpha-tubulin primary antibodies (Cell signaling technology, Beverly, MA, USA) were diluted at a ratio of 1:1000 with 2.5% bovine serum albumin (BSA; Bioworld, Dubin, OH, USA) and incubated with the proteins transferred to the nitrocellulose membranes at room temperature for 20 h. After incubation of the primary antibodies, the nitrocellulose membranes were washed 3 times with Tris-buffer saline Tween 20 (TBST) for 10 min. After washing, an anti-rabbit secondary antibody (Bethyl Laboratories, Inc., Montgomery, TA, USA) conjugated with horseradish peroxidase recognizing the primary antibodies was diluted 1:5000 with 2.5% BSA (Bioworld) and incubated with the nitrocellulose membranes at room temperature for 2 h. […]
(§6) Protein bands detected through antibody binding were developed using an ECL western blot detection reagent (Amersham, Tokyo, Japan) and visualized using a G;BOX EF imaging system (Syngene, Cambridge, UK). […]

p-4EBP1 = test: Western blot of mRNA translation biomarkers in TNF-α-treated L6 myotubes: p-4EBP1; type: cell-based; conditions: 50 ng/mL TNF-α
Method: as §5, §6

p-p70S6K = test: Western blot of mRNA translation biomarkers in TNF-α-treated L6 myotubes: p-p70S6K; type: cell-based; conditions: 50 ng/mL TNF-α
Method: as §5, §6

Row | SMILES | mRNA expression level of atrogin-1 in L6 muscle cells (atrogin-1; 1 μM) | activity of mTOR in L6 muscle cells (mTOR; 1 μM) | mRNA expression level of MuRF1 in L6 muscle cells (MuRF1; 1 μM) | increase of muscle (soleus) weight compared to the control group (Wistar rats) | Average soleus weight (Wistar rats) | mRNA expression level of atrogin-1 in L6 muscle cells (atrogin-1; 15 μM or 25 μM) | expression level of phosphorylated p-mTOR in L6 muscle cells (p-mTOR; 15 μM or 25 μM) | activity of mTOR in L6 muscle cells (mTOR; 15 μM or 25 μM) | expression level of phosphorylated p-4EBP1 in L6 muscle cells (p-4EBP1; 15 μM or 25 μM) | expression level of phosphorylated p-P70S6K in L6 muscle cells (p-p70S6K; 15 μM or 25 μM) | mRNA expression level of MuRF1 in L6 muscle cells (MuRF1; 15 μM or 25 μM) | mRNA expression level of atrogin-1 in L6 muscle cells (atrogin-1; 1 μM or 3 μM) | expression level of phosphorylated p-mTOR in L6 muscle cells (p-mTOR; 1 μM or 3 μM) | activity of mTOR in L6 muscle cells (mTOR; 1 μM or 3 μM) | expression level of phosphorylated p-4EBP1 in L6 muscle cells (p-4EBP1; 1 μM or 3 μM) | expression level of phosphorylated p-P70S6K in L6 muscle cells (p-p70S6K; 1 μM or 3 μM) | mRNA expression level of MuRF1 in L6 muscle cells (MuRF1; 1 μM or 3 μM)
1 | CCCCCCCCCCCCC/C=C/[C@@H](O)[C@H](CO[C@@H]1OC(CO)[C@@H](O[C@@H]2OC(CO)[C@H](O[C@H]3OC(CO)[C@H](O)C(OC4OC(CO)C(O)[C@H](O[C@]5(C(=O)O)CC(O)[C@@H](NC(C)=O)C([C@@H](O)[C@H](O)CO)O5)C4CO)C3NC(C)=O)C(O[C@]3(C(=O)O)CC(O)[C@@H](NC(C)=O)C([C@@H](O)[C@H](CO)O[C@]4(C(=O)O)CC(O)[C@@H](NC(C)=O)C([C@@H](O)[C@H](O)CO)O4)O3)C2O)C(O)C1O)NC(=O)CCCCCCCCCCCCCCCCC (some centres unmarked) [Ganglioside GT1b, ganglioside GT1b] | reduced | significantly increased | reduced | 14.42% | 476.0 ± 24.1 mg |  |  |  |  |  |  |  |  |  |  |  | 
2 | CCCCCCCCCCCCC/C=C/[C@@H](O)[C@H](CO[C@@H]1O[C@H](CO)[C@@H](O[C@@H]2O[C@H](CO)[C@H](O[C@@H]3O[C@H](CO)[C@H](O)[C@H](O[C@@H]4O[C@H](CO)[C@H](O)[C@H](O)[C@H]4O)[C@H]3NC(C)=O)[C@H](O[C@]3(C(=O)O)C[C@H](O)[C@@H](NC(C)=O)[C@H]([C@H](O)[C@H](O)CO)O3)[C@H]2O)[C@H](O)[C@H]1O)NC(=O)CCCCCCCCCCCCCCCCC [Ganglioside GM1, ganglioside GM1] |  |  |  | 22.11% | 508.0 ± 19.8 mg | reduced | increased | significantly increased | increased | increased | reduced |  |  |  |  |  | 
3 | CCCCCCCCCCCCC/C=C/[C@@H](O)[C@H](CO[C@@H]1OC(CO)[C@@H](O[C@@H]2OC(CO)[C@H](O[C@H]3OC(CO)[C@H](O)C(O[C@@H]4OC(CO)[C@H](O[C@]5(C(=O)O)CC(O)[C@@H](NC(C)=O)C([C@@H](O)[C@H](O)CO)O5)C(O)C4O)C3NC(C)=O)C(O[C@]3(C(=O)O)CC(O)[C@@H](NC(C)=O)C([C@@H](O)[C@H](O)CO)O3)C2O)C(O)C1O)NC(=O)CCCCCCCCCCCCCCCCC (some centres unmarked) [Ganglioside GD1a, ganglioside GD1a] |  |  |  | 17.79% | 490.0 ± 22.8 mg |  |  |  |  |  |  | reduced | increased | significantly increased | increased | increased | reduced
4 | CCCCCCCCCCCCC/C=C/[C@@H](O)[C@H](CO[C@@H]1OC(CO)[C@@H](O[C@@H]2OC(CO)[C@H](O[C@H]3OC(CO)[C@H](O)C(O[C@@H]4OC(CO)[C@@H](O)C(O[C@]5(C(=O)O)CC(O)[C@@H](NC(C)=O)C([C@@H](O)[C@H](CO)O[C@]6(C(=O)O)CC(O)[C@@H](NC(C)=O)C([C@@H](O)[C@H](O)CO)O6)O5)C4O)C3NC(C)=O)C(O[C@]3(C(=O)O)CC(O)[C@@H](NC(C)=O)C([C@@H](O)[C@H](CO)O[C@]4(C(=O)O)CC(O)[C@@H](NC(C)=O)C([C@@H](O)[C@H](O)CO)O4)O3)C2O)C(O)C1O)NC(=O)CCCCCCCCCCCCCCCCC (some centres unmarked) [Ganglioside GQ1b, ganglioside GQ1b] | reduced | significantly increased | reduced | 16.37% | 484.1 ± 25.4 mg |  |  |  |  |  |  |  |  |  |  |  | 
